Assay in all cases: Antibacterial assay, microtitration MIC (Test A)
What all share (assay type): cell-based

For test [1], the system named is E. coli EC-2549. The settings on record: strain EC-2549; for MIC: Escherichia coli, EC2549, Gram Negative Bacteria, read-out: Minimum Inhibitory Concentrations E. coli EC-2549; for Minimum Inhibitory Concentrations E. coli EC-2549: Gram Negative Bacteria. The procedure:
(§1) The compounds of the present invention were tested against an assortment of Gram-negative and Gram-positive organisms using standard microtitration techniques (Cohen et. al., Antimicrob., 1985;28:766; Heifetz, et. al., Antimicrob., 1974;6:124). The results of the evaluation are shown in Tables 1A and B, wherein “-” means no data.

Test [2] relates to H. influenzae HI-3542. The settings on record: strain HI-3542; for MIC: Haemophilus influenzae, HI3542, Gram Negative Bacteria, read-out: Minimum Inhibitory Concentrations H. influenzae HI-3542; for Minimum Inhibitory Concentrations H. influenzae HI-3542: Gram Negative Bacteria. The method, then: as §1
Test [3] deals with M. catarrhalis BC-3531. The settings on record: strain BC-3531; for MIC: Moraxella catarrhalis, BC3531, Gram Negative Bacteria, read-out: Minimum Inhibitory Concentrations M. catarrhalis BC-3531; for Minimum Inhibitory Concentrations M. catarrhalis BC-3531: Gram Negative Bacteria. The method, then:
as §1

Converted amounts (≈) assume the structure as drawn.

For the molecule `O=C(O)c1cn(C2CC2)c2c(Cl)c(N3CC(CO)C4(CC4)C3)c(F)cc2c1=O` (stereo not drawn) [drawing 421], the MIC in test [1] is 0.06 µg/mL (≈ 0.147 µM); in test [2] it was 0.004 µg/mL (≈ 0.00983 µM); in test [3] it was 0.008 µg/mL (≈ 0.0197 µM).

As to `Cc1c(N2CC(C(O)CO)C3(CC3)C2)c(F)cc2c(=O)c(C(=O)O)cn(C3CC3)c12` (stereo not drawn) [drawing 422], the MIC stood at 0.125 µg/mL (≈ 0.3 µM) in test [1], 0.015 µg/mL (≈ 0.036 µM) in test [2] and 0.03 µg/mL (≈ 0.072 µM) in test [3].

Turning to `Cc1c(N2CC(C(C)O)C(C)(C)C2)c(F)cc2c(=O)c(C(=O)O)cn(C3CC3)c12` (stereo not drawn) [drawing 423], the MIC in test [1] was found to be 0.25 µg/mL (≈ 0.621 µM); in test [2], 0.06 µg/mL (≈ 0.149 µM); in test [3], 0.015 µg/mL (≈ 0.0373 µM).

Turning to `COCCOCC(O)C1CN(c2c(F)cc3c(=O)c(C(=O)O)cn(C4CC4)c3c2C)CC1(C)C` (stereo not drawn) [drawing 424], the MIC amounted to 2 µg/mL (≈ 4.2 µM) in test [1], 0.5 µg/mL (≈ 1.05 µM) in test [2] and 0.25 µg/mL (≈ 0.525 µM) in test [3].

In the case of `Cc1c(N2CC(C(O)CO)C(C)(C)C2)c(F)cc2c(=O)c(C(=O)O)cn(C3CC3)c12` (stereo not drawn) [drawing 425], the MIC is 0.5 µg/mL (≈ 1.19 µM) in test [1], 0.06 µg/mL (≈ 0.143 µM) in test [2] and 0.06 µg/mL (≈ 0.143 µM) in test [3].

As to `COCC(O)C1CN(c2c(F)cc3c(=O)c(C(=O)O)cn(C4CC4)c3c2C)CC1(C)C` (stereo not drawn) [drawing 426], the MIC in test [1] came out at 1 µg/mL (≈ 2.31 µM); in test [2] it was 0.25 µg/mL (≈ 0.578 µM); in test [3], 0.125 µg/mL (≈ 0.289 µM).

For `Cc1c(N2CC(C)(CO)C(C)(CO)C2)c(F)cc2c(=O)c(C(=O)O)cn(C3CC3)c12` (stereo not drawn) [drawing 437], in test [1], the “Minimum Inhibitory Concentrations E. coli EC-2549” value is 0.5 µg/mL. Also, the “Minimum Inhibitory Concentrations H. influenzae HI-3542” value in test [2] amounted to 0.06 µg/mL. Moreover, in test [3], the “Minimum Inhibitory Concentrations M. catarrhalis BC-3531” value came to 0.06 µg/mL.

As for `Cc1c(N2CC(C)(CO)C(C)(CO)C2)c(F)cc2c(=O)c(C(=O)O)cn(C3CC3)c12` (stereo not drawn) [drawing 438], in test [1], the “Minimum Inhibitory Concentrations E. coli EC-2549” value came to 2 µg/mL. In addition, in test [2], the “Minimum Inhibitory Concentrations H. influenzae HI-3542” value was 0.125 µg/mL. Also, in test [3], the “Minimum Inhibitory Concentrations M. catarrhalis BC-3531” value was found to be 0.25 µg/mL.

`Cc1c(N2C[C@@H]3CC[C@@H](O)[C@@H]3C2)c(F)cc2c(=O)c(C(=O)O)cn(C3CC3)c12` [drawing 442]: the MIC in test [1] was found to be 0.03 µg/mL (≈ 0.0776 µM); in test [2], 0.008 µg/mL (≈ 0.0207 µM); in test [3], 0.008 µg/mL (≈ 0.0207 µM).

Turning to `COc1c(N2C[C@@H]3CC[C@@H](O)[C@@H]3C2)c(F)cc2c(=O)c(C(=O)O)cn(C3CC3)c12` [drawing 443], the MIC in test [1] worked out at 0.25 µg/mL (≈ 0.621 µM); in test [2] it was 0.03 µg/mL (≈ 0.0745 µM); in test [3], 0.03 µg/mL (≈ 0.0745 µM).

With `Nc1nc(-n2cc(C(=O)O)c(=O)c3cc(F)c(N4C[C@@H]5CC[C@@H](O)[C@@H]5C4)c(Cl)c32)c(F)cc1F` [drawing 444], the MIC worked out at 0.25 µg/mL (≈ 0.505 µM) in test [1], 0.03 µg/mL (≈ 0.0606 µM) in test [2] and 0.03 µg/mL (≈ 0.0606 µM) in test [3].

In the case of `CC(=O)O[C@@H]1CC[C@H]2CN(c3c(F)cc4c(=O)c(C(=O)O)cn(-c5nc(N)c(F)cc5F)c4c3Cl)C[C@H]21` [drawing 445], the MIC stood at 0.5 µg/mL (≈ 0.931 µM) in test [1], 0.03 µg/mL (≈ 0.0559 µM) in test [2] and 0.06 µg/mL (≈ 0.112 µM) in test [3].

Turning to `Cc1c(N2C[C@@H]3C[C@@H](O)[C@@H](O)[C@@H]3C2)c(F)cc2c(=O)c(C(=O)O)cn(C3CC3)c12` [drawing 446], the MIC was found to be 0.125 µg/mL (≈ 0.311 µM) in test [1], 0.008 µg/mL (≈ 0.0199 µM) in test [2] and 0.03 µg/mL (≈ 0.0745 µM) in test [3].

For `O=C(O)c1cn(C2CC2)c2c(OC(F)F)c(N3CC4CC(O)C(O)C4C3)c(F)cc2c1=O` (stereo not drawn) [drawing 448], the MIC in test [1] is 0.5 µg/mL (≈ 1.1 µM); in test [2], 0.03 µg/mL (≈ 0.066 µM); in test [3] it was 0.06 µg/mL (≈ 0.132 µM).

As to `COc1c(N2C[C@@H]3CC[C@@](O)(CO)[C@@H]3C2)c(F)cc2c(=O)c(C(=O)O)cn(C3CC3)c12` [drawing 449], the MIC in test [1] was 0.5 µg/mL (≈ 1.16 µM); in test [2] it was 0.06 µg/mL (≈ 0.139 µM); in test [3] it was 0.06 µg/mL (≈ 0.139 µM).

Consider `Cc1c(N2C[C@@H]3CC[C@@](O)(CO)[C@@H]3C2)c(F)cc2c(=O)c(C(=O)O)cn(C3CC3)c12` [drawing 450], for which the MIC in test [1] was found to be 0.125 µg/mL (≈ 0.3 µM); in test [2], 0.015 µg/mL (≈ 0.036 µM); in test [3], 0.03 µg/mL (≈ 0.072 µM).

As for `COc1c(N2C[C@]3(CO)CCC[C@]3(CO)C2)c(F)cc2c(=O)c(C(=O)O)cn(C3CC3)c12` [drawing 451], the MIC in test [1] came to 2 µg/mL (≈ 4.48 µM); in test [2], 0.125 µg/mL (≈ 0.28 µM); in test [3] it was 0.25 µg/mL (≈ 0.56 µM).

On to `Cc1c(N2CC3(CO)CCCC3(CO)C2)c(F)cc2c(=O)c(C(=O)O)cn(C3CC3)c12` (stereo not drawn) [drawing 452], for which the MIC came out at 0.125 µg/mL (≈ 0.29 µM) in test [1], 0.015 µg/mL (≈ 0.0348 µM) in test [2] and 0.03 µg/mL (≈ 0.0697 µM) in test [3].

The values are drawn from patent publication US20050107423A1, “Quinolone antibacterial agents” (priority 2003, published 2005).
